{
  "source": "the supplement of paper PMC10307832",
  "test_in_all_cases": "relative viability (nuclei count vs DMSO), 5 days (fraction); higher = more cells survive",
  "key": {"BEN": {"system": "BEN", "in_short": "(§1)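 Dosing by pin tool came one day after lung cancer cell lines were seeded in 1536-well plates, using either one drug or a fixed anchor-drug dose plus five library-drug doses (not always all listed) in √10 steps. After 5 days, nuclei were counted on 4× images. Relative viability is treated-well nuclei count divided by vehicle-well nuclei count, and values are medians of duplicate plates.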"}, "NCI-H1437": {"system": "NCI-H1437", "in_short": "as §1"}, "COR-L23": {"system": "COR-L23", "in_short": "as §1"}, "HARA": {"system": "HARA", "in_short": "as §1"}, "NCI-H2170": {"system": "NCI-H2170", "in_short": "as §1"}, "LK-2": {"system": "LK-2", "in_short": "as §1"}, "PC-14": {"system": "PC-14", "in_short": "as §1"}, "NCI-H3122": {"system": "NCI-H3122", "in_short": "as §1"}, "NCI-H441": {"system": "NCI-H441", "in_short": "as §1"}, "NCI-H1666": {"system": "NCI-H1666", "in_short": "as §1"}, "CAL-12T": {"system": "CAL-12T", "in_short": "as §1"}, "NCI-H661": {"system": "NCI-H661", "in_short": "as §1"}, "NCI-H2009": {"system": "NCI-H2009", "in_short": "as §1"}, "EKVX": {"system": "EKVX", "in_short": "as §1"}, "NCI-H727": {"system": "NCI-H727", "in_short": "as §1"}, "ABC-1": {"system": "ABC-1", "in_short": "as §1"}, "LU99A": {"system": "LU99A", "in_short": "as §1"}, "SW 900": {"system": "SW 900", "in_short": "as §1"}, "201T": {"system": "201T", "in_short": "as §1"}, "NCI-H838": {"system": "NCI-H838", "in_short": "as §1"}, "NCI-H1650": {"system": "NCI-H1650", "in_short": "as §1"}, "COR-L 105": {"system": "COR-L 105", "in_short": "as §1"}},
  "data": [
    {"compound": "O=C(O)c1ccc(-c2c[nH]c3ncc(-c4ccccc4)cc23)cc1C1CCCC1", "note": "+ CCNC(=O)c1noc(-c2cc(C(C)C)c(O)cc2O)c1-c1ccc(CN2CCOCC2)cc1 [Luminespib] (partner 0.01 µM)", "values": [
      {"measurement": "relative viability", "setting": "BEN; first compound 0.04 µM", "value": 0.569},
      {"measurement": "relative viability", "setting": "BEN; first compound 0.1265 µM", "value": 0.32},
      {"measurement": "relative viability", "setting": "BEN; first compound 0.4 µM", "value": 0.284},
      {"measurement": "relative viability", "setting": "BEN; first compound 1.265 µM", "value": 0.306},
      {"measurement": "relative viability", "setting": "NCI-H1437; first compound 0.04 µM", "value": 1.09},
      {"measurement": "relative viability", "setting": "NCI-H1437; first compound 0.1265 µM", "value": 1.07},
      {"measurement": "relative viability", "setting": "NCI-H1437; first compound 0.4 µM", "value": 0.925},
      {"measurement": "relative viability", "setting": "NCI-H1437; first compound 1.265 µM", "value": 0.603},
      {"measurement": "relative viability", "setting": "COR-L23; first compound 0.04 µM", "value": 0.656},
      {"measurement": "relative viability", "setting": "COR-L23; first compound 0.1265 µM", "value": 0.742},
      {"measurement": "relative viability", "setting": "COR-L23; first compound 0.4 µM", "value": 0.612},
      {"measurement": "relative viability", "setting": "COR-L23; first compound 1.265 µM", "value": 0.407},
      {"measurement": "relative viability", "setting": "HARA; first compound 0.04 µM", "value": 0.767},
      {"measurement": "relative viability", "setting": "HARA; first compound 0.1265 µM", "value": 0.748},
      {"measurement": "relative viability", "setting": "HARA; first compound 0.4 µM", "value": 0.141},
      {"measurement": "relative viability", "setting": "HARA; first compound 1.265 µM", "value": 0.418},
      {"measurement": "relative viability", "setting": "NCI-H2170; first compound 0.04 µM", "value": 0.745},
      {"measurement": "relative viability", "setting": "NCI-H2170; first compound 0.1265 µM", "value": 0.804},
      {"measurement": "relative viability", "setting": "NCI-H2170; first compound 0.4 µM", "value": 0.794},
      {"measurement": "relative viability", "setting": "NCI-H2170; first compound 1.265 µM", "value": 0.491},
      {"measurement": "relative viability", "setting": "LK-2; first compound 0.04 µM", "value": 0.157},
      {"measurement": "relative viability", "setting": "LK-2; first compound 0.1265 µM", "value": 0.187},
      {"measurement": "relative viability", "setting": "LK-2; first compound 0.4 µM", "value": 0.161},
      {"measurement": "relative viability", "setting": "LK-2; first compound 1.265 µM", "value": 0.168},
      {"measurement": "relative viability", "setting": "PC-14; first compound 0.04 µM", "value": 0.225},
      {"measurement": "relative viability", "setting": "PC-14; first compound 0.1265 µM", "value": 0.129},
      {"measurement": "relative viability", "setting": "PC-14; first compound 0.4 µM", "value": 0.141},
      {"measurement": "relative viability", "setting": "PC-14; first compound 1.265 µM", "value": 0.134},
      {"measurement": "relative viability", "setting": "NCI-H3122; first compound 0.04 µM", "value": 0.0905},
      {"measurement": "relative viability", "setting": "NCI-H3122; first compound 0.1265 µM", "value": 0.0913},
      {"measurement": "relative viability", "setting": "NCI-H3122; first compound 0.4 µM", "value": 0.0809},
      {"measurement": "relative viability", "setting": "NCI-H3122; first compound 1.265 µM", "value": 0.0888},
      {"measurement": "relative viability", "setting": "NCI-H441; first compound 0.04 µM", "value": 0.332},
      {"measurement": "relative viability", "setting": "NCI-H441; first compound 0.1265 µM", "value": 0.431},
      {"measurement": "relative viability", "setting": "NCI-H441; first compound 0.4 µM", "value": 0.266},
      {"measurement": "relative viability", "setting": "NCI-H441; first compound 1.265 µM", "value": 0.298},
      {"measurement": "relative viability", "setting": "NCI-H1666; first compound 0.04 µM", "value": 0.976},
      {"measurement": "relative viability", "setting": "NCI-H1666; first compound 0.1265 µM", "value": 0.97},
      {"measurement": "relative viability", "setting": "NCI-H1666; first compound 0.4 µM", "value": 0.959},
      {"measurement": "relative viability", "setting": "NCI-H1666; first compound 1.265 µM", "value": 0.579},
      {"measurement": "relative viability", "setting": "CAL-12T; first compound 0.04 µM", "value": 0.57},
      {"measurement": "relative viability", "setting": "CAL-12T; first compound 0.1265 µM", "value": 0.354},
      {"measurement": "relative viability", "setting": "CAL-12T; first compound 0.4 µM", "value": 0.519},
      {"measurement": "relative viability", "setting": "CAL-12T; first compound 1.265 µM", "value": 0.268},
      {"measurement": "relative viability", "setting": "NCI-H661; first compound 0.04 µM", "value": 0.915},
      {"measurement": "relative viability", "setting": "NCI-H661; first compound 0.4 µM", "value": 0.905},
      {"measurement": "relative viability", "setting": "NCI-H661; first compound 1.265 µM", "value": 0.897},
      {"measurement": "relative viability", "setting": "NCI-H2009; first compound 0.04 µM", "value": 1.05},
      {"measurement": "relative viability", "setting": "NCI-H2009; first compound 0.1265 µM", "value": 1.03},
      {"measurement": "relative viability", "setting": "NCI-H2009; first compound 0.4 µM", "value": 0.963},
      {"measurement": "relative viability", "setting": "NCI-H2009; first compound 1.265 µM", "value": 0.75},
      {"measurement": "relative viability", "setting": "EKVX; first compound 0.04 µM", "value": 0.885},
      {"measurement": "relative viability", "setting": "EKVX; first compound 0.1265 µM", "value": 0.92},
      {"measurement": "relative viability", "setting": "EKVX; first compound 0.4 µM", "value": 0.931},
      {"measurement": "relative viability", "setting": "EKVX; first compound 1.265 µM", "value": 0.615},
      {"measurement": "relative viability", "setting": "NCI-H727; first compound 0.04 µM", "value": 0.325},
      {"measurement": "relative viability", "setting": "NCI-H727; first compound 0.1265 µM", "value": 0.41},
      {"measurement": "relative viability", "setting": "NCI-H727; first compound 0.4 µM", "value": 0.638},
      {"measurement": "relative viability", "setting": "NCI-H727; first compound 1.265 µM", "value": 0.281},
      {"measurement": "relative viability", "setting": "ABC-1; first compound 0.1265 µM", "value": 0.572},
      {"measurement": "relative viability", "setting": "ABC-1; first compound 1.265 µM", "value": 0.509},
      {"measurement": "relative viability", "setting": "LU99A; first compound 0.04 µM", "value": 0.259},
      {"measurement": "relative viability", "setting": "LU99A; first compound 0.1265 µM", "value": 0.254},
      {"measurement": "relative viability", "setting": "LU99A; first compound 0.4 µM", "value": 0.244},
      {"measurement": "relative viability", "setting": "LU99A; first compound 1.265 µM", "value": 0.273},
      {"measurement": "relative viability", "setting": "SW 900; first compound 0.04 µM", "value": 0.185},
      {"measurement": "relative viability", "setting": "SW 900; first compound 0.1265 µM", "value": 0.171},
      {"measurement": "relative viability", "setting": "SW 900; first compound 0.4 µM", "value": 0.175},
      {"measurement": "relative viability", "setting": "SW 900; first compound 1.265 µM", "value": 0.156},
      {"measurement": "relative viability", "setting": "201T; first compound 0.04 µM", "value": 1.08},
      {"measurement": "relative viability", "setting": "201T; first compound 0.1265 µM", "value": 1.04},
      {"measurement": "relative viability", "setting": "201T; first compound 0.4 µM", "value": 1.07},
      {"measurement": "relative viability", "setting": "201T; first compound 1.265 µM", "value": 0.987},
      {"measurement": "relative viability", "setting": "NCI-H838; first compound 0.04 µM", "value": 0.315},
      {"measurement": "relative viability", "setting": "NCI-H838; first compound 0.1265 µM", "value": 0.266},
      {"measurement": "relative viability", "setting": "NCI-H838; first compound 0.4 µM", "value": 0.26},
      {"measurement": "relative viability", "setting": "NCI-H838; first compound 1.265 µM", "value": 0.287},
      {"measurement": "relative viability", "setting": "NCI-H1650; first compound 0.04 µM", "value": 0.194},
      {"measurement": "relative viability", "setting": "NCI-H1650; first compound 0.1265 µM", "value": 0.17},
      {"measurement": "relative viability", "setting": "NCI-H1650; first compound 0.4 µM", "value": 0.196},
      {"measurement": "relative viability", "setting": "NCI-H1650; first compound 1.265 µM", "value": 0.197},
      {"measurement": "relative viability", "setting": "COR-L 105; first compound 0.04 µM", "value": 0.933},
      {"measurement": "relative viability", "setting": "COR-L 105; first compound 0.1265 µM", "value": 0.76},
      {"measurement": "relative viability", "setting": "COR-L 105; first compound 0.4 µM", "value": 0.762},
      {"measurement": "relative viability", "setting": "COR-L 105; first compound 1.265 µM", "value": 0.773}
    ]}
  ]
}
